According to patent US20160312292A1, “METHODS FOR TREATING HEMATOLOGICAL CANCERS AND THE USE OF BIOMARKERS AS A PREDICTOR OF CLINICAL SENSITIVITY TO IMMUNODULATORY THERAPIES” (CELGENE CORPORATION, priority 2013, published 2016):
Several values for one entry are separate records, joined by “and”; a condition that tells them apart may be missing. Equal values may be shown once.

Test system: refractory or relapsed diffuse large B-Cell lymphoma (DLBCL) patients
Test: Clinical trial of lenalidomide in refractory or relapsed DLBCL patients: best response, PFS, OS
Assay type: in vivo, human
Text: A clinical trial was formed with four arms, each arm containing 25 patients. One arm contained patients classified as presenting germinal center B-cell-like DLBCL subtypes receiving lenalidomide, a second arm contained patients classified as presenting germinal center B-cell-like DLBCL subtypes receiving another therapy selected by the investigator, a third arm contained patients classified as presenting activated B-cell-like DLBCL subtypes receiving lenalidomide, and a fourth arm contained patients classified as presenting activated B-cell-like DLBCL subtypes receiving another therapy selected by the investigator. The patients in the four arms of the clinical trial received treatment until disease progression.
For purposes of this exploratory analysis, a subset of the clinical data associated to each patient comprised the therapy arm, Revlimid (REV) or control drug (CON), and their corresponding response to the drug in both categorical variable {complete response (CR), partial response (PR), establish disease (SD), progression disease (PD) and Death} and continuous variables as progression free survival (PFS) and overall (OS), unit weeks. It also includes the predicted DLBCL sub-type (ABC/GCB) and other demographic data. […]

## Nc1cccc2c1CN(C1CCC(=O)NC1=O)C2=O (centres unmarked) [lenalidomide, 3-(4-amino-1-oxo-1,3-dihydro-isoindol-2-yl)-piperidine-2,6-dione]
Individual Revlimid-arm DLBCL patients whose baseline FF profile had a non-zero estimated proportion of NK-cells
  progression free survival (PFS): 27 weeks and 31.9 weeks and 32.4 weeks and 85.3 weeks
One lenalidomide-treated DLBCL patient with low B aIgM proportion who died shortly after starting treatment
  progression free survival (PFS): < 3 weeks
